What was measured:
[1] = molecular target: human DPP1 enzyme (Homo sapiens (Human), UniProt P53634); test: Human DPP1 enzyme single-point percent inhibition testing (HL-60 lysate, H-Gly-Arg-AMC substrate); type: biochemical; details: read-out: human DPP1 enzyme % inhibition @ 10 nM, 10 nM compound, 400 μM H-Gly-Arg-AMC, 10 min pre-incubation at 37° C.
Protocol: A crude lysate of HL-60 cells (ATCC; Manassas, VA) was used as a source of human DPP1 enzyme in the assay. Lysate was prepared in 1% Triton X-100 in PBS at a concentration of 20,000 live cells per […] of lysis buffer and was centrifuged at 16,000 rcf for 10 minutes at 4° C., after which supernatant was collected and flash-frozen in liquid nitrogen. Test articles were applied to human DPP1 enzyme in Assay Buffer (25 mM MES pH 6.0, 50 mM NaCl, 5 mM DTT) in a total reaction volume of 125 μL. 25 μL of compound diluted to 50 nM in Assay Buffer plus 5% DMSO was first added to 50 μL of HL-60 lysate diluted to contain a DPP1 enzyme concentration of roughly 1 ng/μL and allowed to pre-incubate for 10 minutes at 37° C. after which 50 μL of 1000 μM H-Gly-Arg-AMC substrate (Bachem; St. Torrance, CA) was added, giving final compound concentration of 10 nM, a final substrate concentration of 400 μM and a final DMSO concentration of 1%. Substrate cleavage was measured for 90 minutes at 37° C., with fluorescence at Excitation/Emission 350/450 nm measured every 5 minutes. DPP1 concentration was interpolated based on its activity relative to a standard curve of activated human recombinant DPP1 enzyme. Percent inhibition at 10 nM was calculated for each test article based on remaining DPP1 activity compared to enzyme activity in wells that received only vehicle control.

[2] = molecular target: DPP1 in HL-60 cells (Homo sapiens (Human), UniProt P53634); test: DPP1 cell single-point percent inhibition testing (HL-60 cells, H-Gly-Phe-AFC substrate); type: cell-based; details: read-out: DPP1 cell % inhibition @ 5 nM, 5 nM compound, 100 μM H-Gly-Phe-AFC, 60 min pre-incubation at 37° C.
Chain of DPP1 in HL-60 cells (P53634 25-134): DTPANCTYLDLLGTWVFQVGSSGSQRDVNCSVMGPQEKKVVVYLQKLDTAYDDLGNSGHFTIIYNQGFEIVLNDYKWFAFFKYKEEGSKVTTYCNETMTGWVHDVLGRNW
Chain of DPP1 in HL-60 cells (P53634 231-394): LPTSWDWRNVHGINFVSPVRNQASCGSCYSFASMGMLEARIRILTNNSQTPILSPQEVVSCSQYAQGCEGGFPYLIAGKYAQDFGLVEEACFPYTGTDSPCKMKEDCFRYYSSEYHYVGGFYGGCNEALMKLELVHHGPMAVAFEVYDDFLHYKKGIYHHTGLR
Chain of DPP1 in HL-60 cells (P53634 395-463): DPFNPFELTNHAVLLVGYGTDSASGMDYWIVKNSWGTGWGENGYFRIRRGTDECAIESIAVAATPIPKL
Protocol: HL-60 cells (ATCC; Manassas, VA) were maintained in RPMI-1640 supplemented with 20% heat-inactivated FBS and 1× Antibiotic Antimycotic (Cytiva; Marlborough, MA). Media was changed every three to four days and cells were not allowed to exceed 1×10^6 cells per mL. Prior to assay, cells were collected by centrifugation at 500 rcf for 3 minutes, resuspended in RPMI (with no additional supplements) and counted. Cells were diluted in RPMI to a concentration of 5×10^5 live cells per mL and transferred to black 96-well plates for assay, 60 μL per well. Test articles were diluted to 25 nM in RPMI plus 0.5% DMSO, and 20 μL was added to each assay well. Compound was allowed to pre-incubate with cells with gentle shaking at 100 rpm for 60 minutes at 37° C. in a cell culture incubator maintained at 5% CO2, after which 20 μL of 500 μM H-Gly-Phe-AFC cell-permeable substrate (MP Biomedicals; Solon, OH) in RPMI was added to each well, giving final compound concentration of 5 nM, a final substrate concentration of 100 μM and a final DMSO concentration of 0.1%. Plates were returned to the incubator with shaking at 100 rpm for 30 minutes, after which fluorescence was measured at Excitation/Emission 400/505 nm. Percent Inhibition was calculated from RFU values by first subtracting background values (wells in which RPMI was substituted for cells) from each well, and then subtracting background-subtracted RFU derived from wells that received a final concentration of 10 μM brensocatib. This value represents the non-specific substrate cleavage from the HL-60 cells, and the remaining RFU should theoretically be solely the contribution of DPP1 enzyme activity. The final percent inhibition value was calculated for each test article based on remaining RFU compared to RFU from wells that received only vehicle control.

Chain of human DPP1 enzyme (P53634 25-134): as the sequence (P53634 25-134) above
Chain of human DPP1 enzyme (P53634 231-394): as the sequence (P53634 231-394) above
Chain of human DPP1 enzyme (P53634 395-463): as the sequence (P53634 395-463) above

## CN(C)C[C@](C)(O)C(=O)NC(C#N)Cc1cc2c(cc1F)-c1cc(C3COC3)c(F)cc1CO2 (stereo partly drawn) [Compound 379]
[1]
  inhibition at 0.01 µM: ≤ 40%
[2]
  inhibition at 0.005 µM: ≤ 76.5%

## CN(C)C[C@](C)(O)C(=O)N[C@H](C#N)Cc1ccc(-c2ccc3nnn(C)c3c2)cc1 [Compound 413]
[1]
  inhibition at 0.01 µM: 40 to 66.7%
[2]
  inhibition at 0.005 µM: 76.5 to 93.9%

## CO[C@@H](CN(C)C)C(=O)N[C@H](C#N)Cc1ccc(-c2ccc3c(n2)CCCN3)cc1F [Compound 325]
[1]
  inhibition at 0.01 µM: ≤ 40%
[2]
  inhibition at 0.005 µM: ≤ 76.5%

## CO[C@@H](CN(C)C)C(=O)NC(C#N)Cc1cc2c(cc1F)-c1cc3c(cc1CO2)oc(=O)n3C (stereo partly drawn) [Compound 297]
[1]
  inhibition at 0.01 µM: ≤ 40%
[2]
  inhibition at 0.005 µM: ≤ 76.5%

## CCN1C(=O)Cc2ccc(-c3ccc(C[C@@H](C#N)NC(=O)[C@@](C)(O)CN(C)C)cc3)cc21 [Compound 389]
[1]
  inhibition at 0.01 µM: 40 to 66.7%
[2]
  inhibition at 0.005 µM: 76.5 to 93.9%

## CN(C)C[C@H](O)C(=O)N[C@H](C#N)Cc1ccc(-c2ccc3c(c2)C2(CCN(C4COC4)CC2)OC3)cc1 [Compound 350]
[1]
  inhibition at 0.01 µM: ≤ 40%
[2]
  inhibition at 0.005 µM: ≤ 76.5%

## CO[C@@H](CN(C)C)C(=O)N[C@H](C#N)Cc1ccc(-c2ccc3oc(=O)n(CCN(C)C)c3c2)cc1 [Compound 302]
[1]
  inhibition at 0.01 µM: 40 to 66.7%
[2]
  inhibition at 0.005 µM: ≤ 76.5%

## CCN1C(=O)Cc2ccc(-c3ccc(C[C@@H](C#N)NC(=O)[C@@H](O)CN(C)C)cc3)cc21 [Compound 347]
[1]
  inhibition at 0.01 µM: ≤ 40%
[2]
  inhibition at 0.005 µM: ≤ 76.5%

## CN(C)C[C@H](O)C(=O)N[C@H](C#N)Cc1ccc(-c2ccc3cnn(C4CCN(C)CC4)c3c2)cc1F [Compound 362]
[1]
  inhibition at 0.01 µM: ≥ 66.7%
[2]
  inhibition at 0.005 µM: ≤ 76.5%

## CN(C)CCn1c(=O)oc2ccc(-c3ccc(C[C@@H](C#N)NC(=O)[C@@H](O)CN(C)C)cc3)cc21 [Compound 344]
[1]
  inhibition at 0.01 µM: 40 to 66.7%
[2]
  inhibition at 0.005 µM: ≤ 76.5%

## CN(C)C[C@H](O)C(=O)N[C@H](C#N)Cc1ccc(-c2ccc3c(c2)C2(CCN(C)C2)OC3=O)cc1F (stereo partly drawn) [Compound 361]
[1]
  inhibition at 0.01 µM: 40 to 66.7%
[2]
  inhibition at 0.005 µM: ≤ 76.5%

## CO[C@@H](CN(C)C)C(=O)N[C@H](C#N)Cc1ccc(-c2ccc3c(n2)CCCN3)cc1 [Compound 312]
[1]
  inhibition at 0.01 µM: ≤ 40%
[2]
  inhibition at 0.005 µM: ≤ 76.5%

## CO[C@@H](CN(C)C)C(=O)N[C@H](C#N)Cc1ccc(-c2ccc3cnn(C)c3c2)cc1F [Compound 332]
[1]
  inhibition at 0.01 µM: ≤ 40%
[2]
  inhibition at 0.005 µM: ≤ 76.5%

## CN(C)C[C@H](O)C(=O)N[C@H](C#N)Cc1ccc(-c2ccc(S(=O)(=O)N3CCC3)cc2)cc1F [Compound 377]
[1]
  inhibition at 0.01 µM: ≤ 40%
[2]
  inhibition at 0.005 µM: ≤ 76.5%

## CO[C@@H](CN(C)C)C(=O)N[C@H](C#N)Cc1ccc(-c2ccc3c(c2)C2(CCN(C4COC4)CC2)OC3)cc1F [Compound 321]
[1]
  inhibition at 0.01 µM: 40 to 66.7%
[2]
  inhibition at 0.005 µM: ≤ 76.5%

## CN(C)C[C@](C)(O)C(=O)N[C@H](C#N)Cc1ccc(-c2ccc3oc(=O)n(C)c3c2)cc1F [Compound 408]
[1]
  inhibition at 0.01 µM: ≥ 66.7%
[2]
  inhibition at 0.005 µM: ≥ 93.9%

## CO[C@@H](CN(C)C)C(=O)N[C@H](C#N)Cc1ccc(-c2ccc3oc(=O)n(C)c3c2)cc1 [Compound 311]
[1]
  inhibition at 0.01 µM: ≤ 40%
[2]
  inhibition at 0.005 µM: 76.5 to 93.9%

## CN(C)C[C@H](O)C(=O)NC(C#N)Cc1cc2c(cc1F)-c1cc3c(cc1CO2)oc(=O)n3C (stereo partly drawn) [Compound 339]
[1]
  inhibition at 0.01 µM: ≤ 40%
[2]
  inhibition at 0.005 µM: ≤ 76.5%

## CN(C)C[C@](C)(O)C(=O)N[C@H](C#N)Cc1cc2c(cc1F)-c1ccc(C#N)cc1CO2 [Compound 380]
[1]
  inhibition at 0.01 µM: ≤ 40%
[2]
  inhibition at 0.005 µM: ≤ 76.5%

## CN(C)C[C@](C)(O)C(=O)N[C@H](C#N)Cc1ccc(-c2ccc3c(c2)C2(CC3)CCN(C)CC2)cc1 [Compound 384]
[1]
  inhibition at 0.01 µM: ≥ 66.7%
[2]
  inhibition at 0.005 µM: ≤ 76.5%

## CN(C)C[C@](C)(O)C(=O)N[C@H](C#N)Cc1ccc(-c2ccc3cnn(C4CCN(C)CC4)c3c2)cc1F [Compound 404]
[1]
  inhibition at 0.01 µM: ≥ 66.7%
[2]
  inhibition at 0.005 µM: ≤ 76.5%

## CN(C)C[C@H](O)C(=O)N[C@H](C#N)Cc1ccc(-c2ccc3c(c2)C2(CCCN(C)C2)C(=O)N3C)cc1F (stereo partly drawn) [Compound 356]
[1]
  inhibition at 0.01 µM: 40 to 66.7%
[2]
  inhibition at 0.005 µM: 76.5 to 93.9%

## CO[C@@H](CN(C)C)C(=O)N[C@H](C#N)Cc1ccc(-c2ccc3cnn(C4CCN(C)CC4)c3c2)cc1F [Compound 320]
[1]
  inhibition at 0.01 µM: ≥ 66.7%
[2]
  inhibition at 0.005 µM: ≤ 76.5%

## CO[C@@H](CN(C)C)C(=O)N[C@H](C#N)Cc1ccc(-c2ccc(S(=O)(=O)N3CCC3)cc2)cc1 [Compound 331]
[1]
  inhibition at 0.01 µM: ≤ 40%
[2]
  inhibition at 0.005 µM: ≤ 76.5%

## CN(C)C[C@](C)(O)C(=O)N[C@H](C#N)Cc1ccc(-c2ccc(CN3CCN(C)CC3)cc2)cc1F [Compound 407]
[1]
  inhibition at 0.01 µM: 40 to 66.7%
[2]
  inhibition at 0.005 µM: ≥ 93.9%

## CN(C)C[C@H](O)C(=O)N[C@H](C#N)Cc1ccc(-c2ccc3c(c2)C2(CC3)CCN(C)CC2)cc1 [Compound 342]
[1]
  inhibition at 0.01 µM: 40 to 66.7%
[2]
  inhibition at 0.005 µM: ≤ 76.5%

## Cc1cn2cc(-c3ccc(C[C@@H](C#N)NC(=O)[C@@](C)(O)CN(C)C)c(F)c3)cc2c(C)n1 [Compound 400]
[1]
  inhibition at 0.01 µM: 40 to 66.7%
[2]
  inhibition at 0.005 µM: 76.5 to 93.9%

## CO[C@@H](CN(C)C)C(=O)N[C@H](C#N)Cc1ccc(-c2ccc3c(c2)C2(CN(C)C2)OC3=O)cc1F [Compound 317]
[1]
  inhibition at 0.01 µM: 40 to 66.7%
[2]
  inhibition at 0.005 µM: ≤ 76.5%

## CN(C)C[C@H](O)C(=O)N[C@H](C#N)Cc1ccc(-c2ccc(CN3CCN(C)CC3)cc2)cc1 [Compound 352]
[1]
  inhibition at 0.01 µM: ≤ 40%
[2]
  inhibition at 0.005 µM: ≤ 76.5%

## CN(C)C[C@](C)(O)C(=O)N[C@H](C#N)Cc1ccc(-c2cnc3c(n2)CCCC3)cc1 [Compound 414]
[1]
  inhibition at 0.01 µM: ≤ 40%
[2]
  inhibition at 0.005 µM: ≤ 76.5%

## CO[C@@H](CN(C)C)C(=O)N[C@H](C#N)Cc1ccc(-c2ccc(CN3CCN(C)CC3)cc2)cc1 [Compound 310]
[1]
  inhibition at 0.01 µM: ≤ 40%
[2]
  inhibition at 0.005 µM: 76.5 to 93.9%

## CO[C@@H](CN(C)C)C(=O)N[C@H](C#N)Cc1cc2c(cc1F)-c1ccc(F)cc1CO2 [Compound 336]
[1]
  inhibition at 0.01 µM: ≤ 40%
[2]
  inhibition at 0.005 µM: ≤ 76.5%

## CN(C)C[C@](C)(O)C(=O)N[C@H](C#N)Cc1ccc(-c2ccc3c(c2)C2(CN(C)C2)OC3=O)cc1F [Compound 401]
[1]
  inhibition at 0.01 µM: ≥ 66.7%
[2]
  inhibition at 0.005 µM: ≥ 93.9%

## CO[C@@H](CN(C)C)C(=O)N[C@H](C#N)Cc1ccc(-c2ccc3c(c2)C2(CCN(C)C2)OC3=O)cc1 (stereo partly drawn) [Compound 306]
[1]
  inhibition at 0.01 µM: ≤ 40%
[2]
  inhibition at 0.005 µM: ≤ 76.5%

## CN(C)C[C@](C)(O)C(=O)N[C@H](C#N)Cc1ccc(-c2ccc3oc(=O)n(CCN4CCOCC4)c3c2)cc1 [Compound 393]
[1]
  inhibition at 0.01 µM: 40 to 66.7%
[2]
  inhibition at 0.005 µM: ≤ 76.5%

## CO[C@@H](CN(C)C)C(=O)N[C@H](C#N)Cc1ccc(-c2cc3c(C)nc(C)cn3c2)cc1 [Compound 303]
[1]
  inhibition at 0.01 µM: ≤ 40%
[2]
  inhibition at 0.005 µM: ≤ 76.5%

From patent US20260008758A1, “LINEAR DIPEPTIDYL PEPTIDASE 1 INHIBITORS AND USES THEREOF” (Insmed Incorporated, priority 2024, published 2026)
